For orientation: IC50 means the concentration needed to halve the response being measured.

For this assay, the target named is truncated Polθ protein (Polθ-Hel containing the helicase domain (67-894)) (Homo sapiens (Human), UniProt O75417). Nature of the assay: Polθ ATPase assay (Biological Assay 1, ADP-Glo luminescence). It is filed as biochemical. Particulars: Polθ-Hel 0.5 nM, DNA substrate 500 nM, ATP 60 μM, 23° C.; read-out: Pole ATPase assay IC50. As for the experimental part: The Polθ ATPase assay was used to evaluate inhibitors of Polθ ATPase activity, in vitro. Experiments were performed using a truncated Polθ protein (Polθ-Hel containing the helicase domain (67-894), ATP and a DNA single strand Oligo (5′-CTGTCCTGCATGATG-3′) in the Polθ assay buffer (20 mM Tis-HCl (pH 8.8), MgCl2 5 mM, tween20 0.01%, NP40 0.01%, BSA 0.01%, DTT 1 mM). 2 μL of assay buffer containing Pole-Hel protein (0.5 nM) and DNA substrate (500 nM) was transferred into assay ready plates, containing 0.04 μL of compounds diluted in DMSO. After a 30 minutes incubation at 23° C. in the dark, the reaction was triggered by adding 2 μL of ATP (60 μM), in assay buffer. After 60 minutes at 23° C., 4 μl of ADP-Glo™ Reagent (Glo 1) was added followed by 40 minutes of incubation, then 8 μl of ADP-Glom kinase Detection Reagent (Glo 2) followed by 60 minutes of incubation at 23° C. Luminescence was then measured using Tecan F200 infinite plate reader. Raw data were analysed using GeneData to generate IC50 values.
truncated Polθ protein (Polθ-Hel containing the helicase domain (67-894)), sequence (O75417 67-894): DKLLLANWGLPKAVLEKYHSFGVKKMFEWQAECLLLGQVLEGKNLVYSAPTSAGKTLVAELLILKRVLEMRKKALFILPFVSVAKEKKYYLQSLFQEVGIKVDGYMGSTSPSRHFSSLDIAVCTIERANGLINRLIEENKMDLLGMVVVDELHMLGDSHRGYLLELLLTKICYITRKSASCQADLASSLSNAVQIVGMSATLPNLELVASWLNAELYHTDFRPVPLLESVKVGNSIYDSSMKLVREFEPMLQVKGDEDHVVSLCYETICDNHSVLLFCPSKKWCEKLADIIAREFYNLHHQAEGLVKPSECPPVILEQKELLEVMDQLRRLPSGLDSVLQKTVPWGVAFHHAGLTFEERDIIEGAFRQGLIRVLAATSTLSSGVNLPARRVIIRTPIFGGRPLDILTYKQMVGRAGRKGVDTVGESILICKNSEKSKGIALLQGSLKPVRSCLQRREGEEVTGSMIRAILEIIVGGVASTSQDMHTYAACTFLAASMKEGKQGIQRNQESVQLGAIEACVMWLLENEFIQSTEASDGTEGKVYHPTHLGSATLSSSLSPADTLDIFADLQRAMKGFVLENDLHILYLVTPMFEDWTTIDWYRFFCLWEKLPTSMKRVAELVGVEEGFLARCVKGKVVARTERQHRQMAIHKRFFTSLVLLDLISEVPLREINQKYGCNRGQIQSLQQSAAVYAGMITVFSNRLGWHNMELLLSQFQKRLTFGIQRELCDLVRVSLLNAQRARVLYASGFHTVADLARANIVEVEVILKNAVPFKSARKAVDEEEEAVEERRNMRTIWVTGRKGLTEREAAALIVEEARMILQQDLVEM
The Polθ ATPase assay described in Biological Assay 1 above was used to evaluate inhibitors of Polθ ATPase activity for the compounds described in the Experimental Part B above, in vitro.
In general terms: In ADP-Glo the light output rises with the ADP produced.
As to `COc1cnc(Cl)cc1-c1cc(C)ncc1C(=O)Nc1nc2cnc(N3CC(OC)C3)nc2s1` [Example 47, 2′-chloro-5′-methoxy-N-[5-(3-methoxyazetidin-1-yl)-[1,3]thiazolo[5,4-d]pyrimidin-2-yl]-6-methyl-[4,4′-bipyridine]-3-carboxamide], the IC50 was < 100 nM. Under `COc1cnc(Cl)cc1-c1cc(C)ncc1C(=O)Nc1nc2cnc(NC3CCC(O)CC3)nc2s1` (stereo not shown) [Example 48, 2′-chloro-N-{5-[(4-hydroxycyclohexyl)amino]-[1,3]thiazolo[5,4-d]pyrimidin-2-yl}-5′-methoxy-6-methyl-[4,4′-bipyridine]-3-carboxamide] stands < 100 nM; under `COc1cnc(Cl)cc1-c1cc(C)ncc1C(=O)Nc1nc2cnc(N3CCOC[C@H]3C)nc2s1` [Example 50, 2′-chloro-5′-methoxy-6-methyl-N-{5-[(3R)-3-methylmorpholin-4-yl]-[1,3]thiazolo[5,4-d]pyrimidin-2-yl}-[4,4′-bipyridine]-3-carboxamide], < 100 nM.

`COc1cnc(Cl)cc1-c1cc(C)ncc1C(=O)Nc1nc2cnc(N3CCOC[C@@H]3C)nc2s1` [Example 51, 2′-chloro-5′-methoxy-6-methyl-N-{5-[(3S)-3-methylmorpholin-4-yl]-[1,3]thiazolo[5,4-d]pyrimidin-2-yl}-[4,4′-bipyridine]-3-carboxamide]: the IC50 is < 100 nM. Then `COc1cnc(Cl)cc1-c1cc(C)ncc1C(=O)Nc1nc2cnc(NC(C)C)nc2s1` [Example 52, 2′-chloro-5′-methoxy-6-methyl-N-{5-[(propan-2-yl)amino]-[1,3]thiazolo[5,4-d]pyrimidin-2-yl}-[4,4′-bipyridine]-3-carboxamide], with < 100 nM; and `COc1cnc(Cl)cc1-c1cc(C)ncc1C(=O)Nc1nc2cnc(N3CCC4(CC3)COC4)nc2s1` [Example 53, 2′-chloro-5′-methoxy-6-methyl-N-(5-{2-oxa-7-azaspiro[3.5]nonan-7-yl}-[1,3]thiazolo[5,4-d]pyrimidin-2-yl)-[4,4′-bipyridine]-3-carboxamide], with < 100 nM. Under `COc1cnc(Cl)cc1-c1cc(C)ncc1C(=O)Nc1nc2cnc(N3CC4CCC(C3)N4)nc2s1` [Example 54, 2′-chloro-N-(5-{3,8-diazabicyclo[3.2.1]octan-3-yl}-[1,3]thiazolo[5,4-d]pyrimidin-2-yl)-5′-methoxy-6-methyl-[4,4′-bipyridine]-3-carboxamide] stands < 100 nM; under `COc1cnc(Cl)cc1-c1cc(C)ncc1C(=O)Nc1nc2cnc(N3CCNCC3)nc2s1` [Example 55, 2′-chloro-5′-methoxy-6-methyl-N-[5-(piperazin-1-yl)-[1,3]thiazolo[5,4-d]pyrimidin-2-yl]-[4,4′-bipyridine]-3-carboxamide], < 100 nM.

Turning to `COc1cnc(Cl)cc1-c1cc(C)ncc1C(=O)Nc1nc2ccc(N3CCCC3=O)cc2s1` [Example 56, 2′-chloro-5′-methoxy-6-methyl-N-[6-(2-oxopyrrolidin-1-yl)-1,3-benzothiazol-2-yl]-[4,4′-bipyridine]-3-carboxamide], the IC50 was < 100 nM. Then `COc1cnc(Cl)cc1-c1cc(C)ncc1C(=O)Nc1nc2ccc(N3CCOCC3=O)cc2s1` [Example 57, 2′-chloro-5′-methoxy-6-methyl-N-[6-(3-oxomorpholin-4-yl)-1,3-benzothiazol-2-yl]-[4,4′-bipyridine]-3-carboxamide], with < 100 nM. For the compound `COc1cnc(Cl)cc1-c1cc(C)ncc1C(=O)Nc1nc2ccc(N3CCN(C)C3=O)cc2s1` [Example 58, 2′-chloro-5′-methoxy-6-methyl-N-[6-(3-methyl-2-oxoimidazolidin-1-yl)-1,3-benzothiazol-2-yl]-[4,4′-bipyridine]-3-carboxamide], the IC50 is < 100 nM. `COc1cnc(Cl)cc1-c1cc(C)ncc1C(=O)Nc1nc2ccc(N3CCOC3=O)cc2s1` [Example 59, 2′-chloro-5′-methoxy-6-methyl-N-[6-(2-oxo-1,3-oxazolidin-3-yl)-1,3-benzothiazol-2-yl]-[4,4′-bipyridine]-3-carboxamide]: the IC50 was < 100 nM.

`COc1cnc(Cl)cc1-c1cc(C)ncc1C(=O)Nc1nc2ccc(N3CCNC3=O)cc2s1` [Example 60, 2′-chloro-5′-methoxy-6-methyl-N-[6-(2-oxoimidazolidin-1-yl)-1,3-benzothiazol-2-yl]-[4,4′-bipyridine]-3-carboxamide]: the IC50 is < 100 nM.

As for `COc1cnc(Cl)cc1-c1cc(C)ncc1C(=O)Nc1nc2cnc(N3CCCCC3=O)cc2s1` [Example 61, 2′-chloro-5′-methoxy-6-methyl-N-[6-(2-oxopiperidin-1-yl)-[1,3]thiazolo[4,5-c]pyridin-2-yl]-[4,4′-bipyridine]-3-carboxamide], the IC50 is < 100 nM. Then `COc1cnc(Cl)cc1-c1cc(C)ncc1C(=O)Nc1nc2cnccc2s1` [Example 62, 2′-chloro-5′-methoxy-6-methyl-N-{[1,3]thiazolo[4,5-c]pyridin-2-yl}-[4,4′-bipyridine]-3-carboxamide], with < 100 nM. Then `COc1cnc(Cl)cc1-c1cc(C)ncc1C(=O)Nc1nc2cc(Cl)ncc2s1` [Example 63, 2′-chloro-N-{6-chloro-[1,3]thiazolo[5,4-c]pyridin-2-yl}-5′-methoxy-6-methyl-[4,4′-bipyridine]-3-carboxamide], with < 100 nM; and `COc1cnc(Cl)cc1-c1cc(C)ncc1C(=O)Nc1nc2cnc(Cl)cc2s1` [Example 64, 2′-chloro-N-{6-chloro-[1,3]thiazolo[4,5-c]pyridin-2-yl}-5′-methoxy-6-methyl-[4,4′-bipyridine]-3-carboxamide], with < 100 nM. Then `COc1cnc(Cl)cc1-c1cc(C)ncc1C(=O)Nc1nc2cnc(N3CCOCC3)cc2s1` [Example 65, 2′-chloro-5′-methoxy-6-methyl-N-[6-(morpholin-4-yl)-[1,3]thiazolo[4,5-c]pyridin-2-yl]-[4,4′-bipyridine]-3-carboxamide], with < 100 nM.

As to `COc1cnc(Cl)cc1-c1cc(C)ncc1C(=O)Nc1nc2ccc(S(=O)(=O)N(C)C)cc2s1` [Example 66, 2′-chloro-N-[6-(dimethylsulfamoyl)-1,3-benzothiazol-2-yl]-5′-methoxy-6-methyl-[4,4′-bipyridine]-3-carboxamide], the IC50 was < 100 nM. Turning to `COc1cnc(Cl)cc1-c1cc(C)ncc1C(=O)Nc1nc2ncc(N3CCOCC3)cc2s1` [Example 67, 2′-chloro-5′-methoxy-6-methyl-N-[6-(morpholin-4-yl)-[1,3]thiazolo[4,5-b]pyridin-2-yl]-[4,4′-bipyridine]-3-carboxamide], the IC50 was < 100 nM.

Consider `COc1cnc(Cl)cc1-c1cc(C)ncc1C(=O)Nc1nc2ccccc2s1` [Example 69, N-(1,3-benzothiazol-2-yl)-2′-chloro-5′-methoxy-6-methyl-[4,4′-bipyridine]-3-carboxamide], for which the IC50 was < 100 nM. Under `COc1cnc(Cl)cc1-c1cc(C)ncc1C(=O)Nc1nc2ncc(N3CCCCC3=O)cc2s1` [Example 70] stands < 100 nM.

As for `COc1cnc(Cl)cc1-c1cc(C)ncc1C(=O)Nc1nc2ncc(N3CCC(O)CC3)cc2s1` [Example 71, 2′-chloro-N-[6-(4-hydroxypiperidin-1-yl)-[1,3]thiazolo[4,5-b]pyridin-2-yl]-5′-methoxy-6-methyl-[4,4′-bipyridine]-3-carboxamide], the IC50 is < 100 nM. Then `COc1cnc(Cl)cc1-c1cc(C)ncc1C(=O)Nc1nc2ccc(N3CCOCC3)nc2s1` [Example 72, 2′-chloro-5′-methoxy-6-methyl-N-[5-(morpholin-4-yl)-[1,3]thiazolo[5,4-b]pyridin-2-yl]-[4,4′-bipyridine]-3-carboxamide], with < 100 nM; and `COc1cnc(Cl)cc1-c1cc(C)ncc1C(=O)Nc1nc2ccc(N3CCCCC3=O)nc2s1` [Example 73, 2′-chloro-5′-methoxy-6-methyl-N-[5-(2-oxopiperidin-1-yl)-[1,3]thiazolo[5,4-b]pyridin-2-yl]-[4,4′-bipyridine]-3-carboxamide], with < 100 nM; and `COc1cnc(Cl)cc1-c1cc(C)ncc1C(=O)Nc1nc2ccc(N3CCC(O)CC3)nc2s1` [Example 74, 2′-chloro-N-[5-(4-hydroxypiperidin-1-yl)-[1,3]thiazolo[5,4-b]pyridin-2-yl]-5′-methoxy-6-methyl-[4,4′-bipyridine]-3-carboxamide], with < 100 nM. Under `COc1ncc2nc(NC(=O)c3cnc(C)cc3-c3cc(Cl)ncc3OC)sc2n1` [Example 75, 2′-chloro-5′-methoxy-N-{5-methoxy-[1,3]thiazolo[5,4-d]pyrimidin-2-yl}-6-methyl-[4,4′-bipyridine]-3-carboxamide] stands < 100 nM. Under `COc1cnc(Cl)cc1-c1cc(C)ncc1C(=O)Nc1nc2cnc(N3CCC4(COC4)C3)nc2s1` [Example 76, 2′-chloro-5′-methoxy-6-methyl-N-(5-{2-oxa-6-azaspiro[3.4]octan-6-yl}-[1,3]thiazolo[5,4-d]pyrimidin-2-yl)-[4,4′-bipyridine]-3-carboxamide] stands < 100 nM.

(Values after patent US20240327430A1 (Breakpoint Therapeutics GmbH, priority 2023, published 2024).)
